The source of these data is PMC9501768, “A New Class of Tunable Acid-Sensitive Linkers for Native Drug Release Based on the Trityl Protecting Group” (Bioconjugate Chemistry, 2022).

Like-named read-outs stand apart in the source and are kept apart here.

Data set [1] in a line: Release of native API from API-linker construct in buffer (UHPLC, first-order fit). The data set is classed as physicochemical. As for the experimental part: Release of DMXAA-amine 1 from the linker construct 12 (method described in S3.1) was measured at 37 °C for 24 h. At set time points, the concentration of the native compound 1 in a buffer of different pH values was measured by ultrahigh performance liquid chromatography (UHPLC) as shown in Figure 3.
The half-life values (t1/2) were determined from the slope of the first-order kinetic curves fitted through the release curve and are shown in Table 2. Details are provided in Section S3 of the Supporting Information. […]
S3: In vitro release protocol and stability control
S3.1 Release of API from API-linker construct
API-linker constructs 12-16, 17 and 18 were dissolved in DMSO at 1 mg/mL. This was then further diluted 10x in 20 mM sodium phosphate buffer 130 mM NaCl pH 7.4, 100 mM sodium citrate buffer 50 mM NaCl pH 6.5, 20 mM ammonium acetate 130 mM NaCl pH 5.0 or if needed 100 mM sodium phosphate buffer 50 mM NaCl pH 3.0. These dilutions were incubated at 37°C in the sample tray and at different timepoints, the concentration of free API 1, 2, or 3 was measured on a H-class UPLC system (Waters) (Figure S7 and S8)
Figure S 7: Chromatogram of 15 at 37°C, pH 7.4 t=0 hours
(1 picture or pasted object on this page, not shown here)
Figure S 8: Chromatogram of 15 at 37°C, pH 7.4, t= 12 hours […]
injection volume, 30 °C column temperature. Run with the following gradient: […]
Time (min) Flow rate %A %B
With A: 25 mM Ammonium acetate buffer pH 5.0 and B: acetonitrile.
2: Acquity HSS T3 1.7 μm, 50 x 2.1 mm column for 18 at 275 nm, 5.0 µL injection volume, 30 °C column temperature. Run with the following gradient: […]
Time (min) Flow rate % A % B
With A: phosphate buffer pH 2.5 and B: methanol.
3: Acquity BEH C18 1.7 μm, 50 x 2.1 mm for 18 at 233 nm, 2.0 µL injection volume, 30 °C column […]
With A: 10 mM ammonium bicarbonate pH 9.6 and B: acetonitrile.
Measured concentrations were plotted using GraphPad Prism 9 and fitted based on first order kinetics.
All fitted lines complied with an R2>0.95. This gave the half-life and plateau when this was not reached within the measured timeframe. […]
Size of all particles were confirmed to be between 55 and 70 nm.

Experiment in data set [2]: as above
The data set is classed as physicochemical. To be noted: pH 5.0, 37 °C.

Details of data set [3]: method as in PMID 14644. The settings on record: doxorubicin amine nitrogen bound to trityl; cited from earlier work.
[4] abbreviates: ammonium acetate buffer, pH 5, API-trityl linker construct in buffer, pH 5.0, 37 °C, read-out: t1/2 pH 5.0 (converted).
[5] abbreviates: sodium citrate buffer, pH 6.5, API-trityl linker construct in buffer, pH 6.5, 37 °C, read-out: t1/2 pH 6.5 (converted).
Setting [6] is: sodium phosphate buffer, pH 7.4, API-trityl linker construct in buffer, pH 7.4, 37 °C, values for 17 are estimations (doxorubicin precipitation), read-out: t1/2 pH 7.4 (converted).

Take `COc1cccc2c1C(=O)c1c(O)c3c(c(O)c1C2=O)C[C@@](O)(C(=O)CO)C[C@@H]3O[C@H]1C[C@H](N)[C@H](O)[C@H](C)O1` [compound 2, doxorubicin, reference compound]: the half-life at 0.1 mg/mL in data set [1] (setting [4]) was less than 1 h.

`Nc1ccn([C@@H]2O[C@H](CO)[C@@H](O)C2(F)F)c(=O)n1` [compound 3, gemcitabine]: in data set [2], the “release at pH 5.0 within 72 h” value is on record as “no detectable release”.

As for `C=C(C)C(=O)NCCCNC(=O)c1cccc(C(Nc2ccc(CC(=O)[O-])c3oc4c(C)c(C)ccc4c(=O)c23)(c2ccc(OC)cc2)c2ccc(OC)cc2)c1.[Li+]` [compound 12], the half-life at 0.1 mg/mL in data set [1] (setting [4]) is 1.8 ± 0.1 h; in data set [1] (setting [5]), 83 ± 27 h. Moreover, the “release of native DMXAA-amine 1 at pH 5” value in data set [1] (construct in buffer, pH 5, 37 °C, within 12 h) was determined as 100%. Further, the “release of native DMXAA-amine 1 at pH 6.5” value in data set [1] (construct in buffer, pH 6.5, 37 °C, over 24 h) is given as approximately 20%. Also, in data set [1] (construct in buffer, pH 7.4, 37 °C, over 24 h), the “release of native DMXAA-amine 1 at pH 7.4” value is “Hardly any release”.

Take `C=C(C)C(=O)NCCCNC(=O)c1ccc(C(Nc2ccc(CC(=O)[O-])c3oc4c(C)c(C)ccc4c(=O)c23)(c2ccc(OC)c(OC)c2)c2ccc(OC)c(OC)c2)cc1.[Li+]` [compound 13]: the half-life at 0.1 mg/mL in data set [1] (setting [4]) is less than 1 h; in data set [1] (setting [5]) it was 1.2 ± 0.1 h; in data set [1] (setting [6]) it was 4.2 ± 0.2 h.

Regarding `C=C(C)C(=O)NCCCNC(=O)c1ccc(C(Nc2ccc(CC(=O)[O-])c3oc4c(C)c(C)ccc4c(=O)c23)(c2ccc(OC)cc2OC)c2ccc(OC)cc2OC)cc1.[Li+]` [compound 14], the half-life at 0.1 mg/mL in data set [1] (setting [4]), in data set [1] (setting [5]) and in data set [1] (setting [6]) was less than 1 h throughout.

On to `C=C(C)C(=O)NCCCNC(=O)c1ccc(C(Nc2ccc(CC(=O)[O-])c3oc4c(C)c(C)ccc4c(=O)c23)(c2ccc(OC)c(C)c2)c2ccc(OC)c(C)c2)cc1.[Li+]` [compound 15], for which the values for the half-life at 0.1 mg/mL in data set [1] (setting [4]) and in data set [1] (setting [5]) were less than 1 h and 1.9 ± 0.2 h, respectively.

As to `C=C(C)C(=O)NCCCNC(=O)c1cccc(C(Nc2ccc(CC(=O)[O-])c3oc4c(C)c(C)ccc4c(=O)c23)(c2ccc(OC)c(OC)c2)c2ccc(OC)c(OC)c2)c1.[Li+]` [compound 16], the half-life at 0.1 mg/mL in data set [1] (setting [4]) was less than 1 h; in data set [1] (setting [5]) it was less than 1 h; in data set [1] (setting [6]) it was 2.3 ± 0.1 h.

In the case of `C=C(C)C(=O)NCCCNC(=O)c1cccc(C(N[C@H]2C[C@H](O[C@H]3C[C@](O)(C(=O)CO)Cc4c(O)c5c(c(O)c43)C(=O)c3c(OC)cccc3C5=O)O[C@@H](C)[C@H]2O)(c2ccc(OC)cc2)c2ccc(OC)cc2)c1` [compound 17], the half-life at 0.1 mg/mL in data set [1] (API-trityl linker construct in buffer, pH 5.0, 37 °C, read-out: t1/2 pH 5.0 (converted)) is less than 1 h; in data set [1] (API-trityl linker construct in buffer, pH 7.4, 37 °C, values for 17 are estimations (doxorubicin precipitation), read-out: t1/2 pH 7.4 (converted)) it was approximately 6 h. Further, the “pKa of the most basic nitrogen” value in data set [3] was 8.4.

Consider `C=C(C)C(=O)NCCCNC(=O)c1cccc(C(Nc2ccn([C@@H]3O[C@H](CO)[C@@H](O)C3(F)F)c(=O)n2)(c2ccc(OC)cc2)c2ccc(OC)cc2)c1` [compound 18], for which the “t1/2 pH 3.0 (h)” value in data set [1] (API-trityl linker construct in buffer, pH 3.0, 37 °C, listed as gem–trityl 18) was 23.2 ± 0.5 h. The half-life at 0.1 mg/mL in data set [1] (setting [4]) was more than 72 h; in data set [1] (sodium phosphate buffer, pH 3, API-trityl linker construct in buffer, pH 3.0, 37 °C, read-out: t1/2 pH 3.0 (converted)) it was 23.3 h; in data set [1] (setting [6]), more than 72 h.
